The experiment deals with stage III colon cancer. Kind of experiment: Studie 90: fluorouracil-based adjuvant chemotherapy, survival by TP53 genotype. The format is in vivo, human. The note with it: for five-years survival rate: low risk patients (1-3 positive lymph nodes). An excerpt:
Tumor specimens were collected from 411 patients enrolled in a randomised trial of fluorouracil-based adjuvant chemotherapy for stage III colon cancer patients.
Fluorouracil acts according to pathway 1 and is supposed to need a normal p53 for induction of apoptosis. The p53 gene status could be assessed in 389 tumors through standardized, gene specific sequencing of the TP53 gene.

Turning to `O=c1[nH]cc(F)c(=O)[nH]1` [fluorouracil], the five-year survival was determined as 84.5% (entire stage IIIA cohort); 78% (stage IIIA, TP53 mutant); 91% (stage IIIA, TP53 normal); 63% (stage IIIB cohort); 60% (stage IIIB, TP53 mutant); 79% (stage IIIB, TP53 normal). Moreover, the “interaction between survival and TP53 genotype” value (high-risk stage III patients) is “no interaction”. For the same compound, the five-years survival rate stood at 64.7% (TP53 mutated) and 81% (normal TP53 genotype). Besides, the “interaction with TP53 genotype” value was “negatively interacts” (mutant TP53 genotype, low-risk stage III patients); “positively interacts” (normal p53 genotype, low risk stage III patients (N1 or IIIA and IIIB stage)). Moreover, the “benefit in relation to the TP53 genotype” value (stage IIIC patients) is given as “no differential benefit”.

Source of the values: patent US20120171305A1, “Response Prediction in Cancer Treatment Involving p53 Adapted Cancer Therapy” (priority 2011, published 2012).
